Measured values as given in patent US8759356B2, “Compounds and methods for controlling fungi” (Dow AgroSciences, LLC., priority 2009, dated 2014).

Columns and labels:
[1] = test system: Septoria tritici (SEPTTR); experiment: One day protectant test against Septoria blotch of wheat; type: in vivo; conditions: wheat 'Yuma' seedlings, inoculated the day after treatment
Protocol: (§1) It will be understood by those in the art that the efficacy of the compounds against the foregoing fungi establishes the general utility of the compounds as fungicides. The activity of the compounds as effective fungicides was determined by applying the compounds to plants and observing control of fungal disease. The compounds were formulated at rates of 50 ppm and 200 ppm in 10 vol. % acetone plus 90 vol. % Triton X water (deionized water 99.99 wt %+0.01 wt % Triton X100), giving a “formulated test compound.” Formulated test compounds were applied to plants using a turntable sprayer fitted with two opposing air atomization nozzles which delivered approximately 1500 L/ha of spray volume.
(§2) Again referring to Table 1, tests were carried out to determine a given exemplary compound's ability to prevent or at least limit a fungal infection as follows. All plants in the study were inoculated with spores of the fungus in this case either PUCCRT or SEPTTR) the day after treatment with the putative fungicide. Next, the plants were incubated in an environment conducive to disease development. Disease severity was evaluated 7 to 25 days later, depending on the speed of disease development. The following experiments were performed in the laboratory to determine the fungicidal efficacy of the compounds of the invention.
Measuring the Preventative Effect of Various Compounds Against Septoria Blotch of Wheat (Causal Agent Bayer Code SEPTTR).
(§3) Each pot contained 3-10 seedlings. These plants were sprayed until wet with the formulated test compound. On the following day, the leaves were inoculated with an aqueous spore suspension of Septoria tritici and the plants were kept in high humidity (one day in a dark dew chamber followed by three days in a lighted dew chamber) to permit the spores to germinate and to infect the leaf. The plants were then transferred to a greenhouse until disease developed on untreated control plants. These tests were carried out using two different levels of the compound, 50 ppm and 200 ppm, see Table 1.
(§4) Disease control was determined by visually estimating the percent disease severity in treated and untreated pots 7 to 24 days after inoculation, depending on speed of disease development. Evaluations were typically made 7 or 8 days after inoculation for PUCCRT and 18 to 22 days after inoculation for SEPTTR. Percent disease control (% DC) was calculated by: % DC=(1−% Disease severity treated/% disease severity untreated)*100.

[2] = test system: Puccinia recondita tritici (PUCCRT); experiment: One day protectant test against leaf rust of wheat; type: in vivo; conditions: wheat 'Yuma' seedlings, inoculated the day after treatment
Protocol: as §1, §2
Measuring the Protective Effect of Various Compounds Against Leaf Rust of Wheat (Causal Agent Bayer Code PUCCRT).
Each pot contained 3-8 seedlings. These plants were sprayed until wet with the formulated test compounds. On the following day, the leaves were inoculated with an aqueous spore suspension of Puccinia recondita tritici and the plants were kept in high humidity overnight to permit the spores to germinate and to infect the leaf. The plants were then transferred to a greenhouse until disease developed on untreated control plants. These tests were carried out using two different levels of the compound, 50 ppm and 200 ppm, see Table 1.
as §4

[3] = test system: Septoria tritici (SEPTTR); experiment: Three day curative test against Septoria blotch of wheat; type: in vivo; conditions: wheat 'Yuma' seedlings, treated three days after inoculation
Protocol: as §1
Measuring the Curative Effect of Various Compounds Against Septoria Blotch of Wheat (Causal Agent Bayer Code SEPTTR).
as §3, with “plants” for “plants were sprayed until wet with the formulated test compound. On the following day, the leaves”, “two” for “three”, “then removed form the dew chamber and allowed to dry. After drying, the inoculated plants were sprayed until wet with the formulated test compound. On the following day, the plants were” for “then”
as §4

Row | Structure (SMILES) | Percent Disease Control, One Day Protectant, SEPTTR ([1]; 50 ppm spray) [%] | Percent Disease Control, One Day Protectant, SEPTTR ([1]; 200 ppm spray) [%] | Percent Disease Control, One Day Protectant, PUCCRT ([2]; 50 ppm spray) [%] | Percent Disease Control, One Day Protectant, PUCCRT ([2]; 200 ppm spray) [%] | Percent Disease Control, Three Day Curative, SEPTTR ([3]; 50 ppm spray) [%] | Percent Disease Control, Three Day Curative, SEPTTR ([3]; 200 ppm spray) [%] | melting point [°C]
1 | Clc1ccc(-c2ncc(Cl)c(NC3CC3)n2)cc1 [Example 1] | 90 | 97 | 93 | 97 | 0 | 0 | 103 to 105
2 | Clc1ccc(-c2ncc(Cl)c(NC3CC3)n2)cc1Cl [compound 2] | 0 | 35 | 0 | 0 | 62 | 72 | 
3 | Fc1cc(Cl)ccc1-c1ncc(Cl)c(NC2CC2)n1 [compound 4] | 38 | 86 | 50 | 99 | 0 | 18 | 
4 | Clc1cnc(-c2ccccc2)nc1NC1CC1 [compound 5] | 38 | 90 | 99 | 99 | 0 | 0 | 
5 | Cc1ccc(-c2ncc(Cl)c(NC3CC3)n2)cc1 [compound 6] | 65 | 95 | 97 | 99 | 0 | 27 | 
6 | Clc1ccc(-c2nc(NC3CC3)ncc2Cl)cc1 [compound 7] | 91 | 61 | 53 | 0 | 50 | 50 | 
